These results are taken from patent publication US10927067B2, “Organic crystalline salt of haloacetic acid” (priority 2016, dated 2021).

For one data set, the system named is MCF7 cells. Kind of data set: zebrafish xenotransplantation tumor model (zebrafish model of hepatocarcinoma), oral dosing with feed for 14 days. In kind it is in vivo. Here is the method: The study was carried out in group sizes of 6 adult fish. Fish were induced with tumor through xenotransplantation of log phase cells. Groups were treated with compounds through oral dosing and treated groups were compared to vehicle treated, to quantify activity against tumor.
Fishes were anesthetized using cold water of 15° C. and 3 ul of 1×10^6 log phase MCF7 cells were injected into the peritoneum to induce tumor. Fish were transferred to housing tanks and maintained for 21 days until tumor reached maximum growth phase.
The stock compound is prepared by dissolving appropriate amount of compound in 1 ml of Phosphate Buffered Saline (PBS—8 g of NaCl, 0.2 g of KCl, 1.44 g of Na2HPO4 and 0.24 g of KH2PO4 is made to 1 litre and pH adjusted to 7.4.) containing 20% DMSO and 30% fish feed grade coconut oil and stored at 4° C. until use.
Fishes were dosed by mixing the compound with feed for 14 days. A per day dosing weight of compound was dissolved in 3 ul of compound dissolving medium and added to a pellet. The pellets were dried at 70 degrees to remove moisture prior to adding compound and post addition and absorption of compound the pellets were transferred to 4° C.
Statistical comparisons were made using GraphPad. Student's t test with a 95% confidence interval was performed using a two-way ANOVA at an alpha=0.05 (95% confidence interval). Significance is denoted with asterisks: ns not significant, *P<0.05, **P<0.01, ***P<0.001, ****P<0.0001.

The conditions of data set [1]: DSC, FIG. 5. Here is the method:
DSC measurements were carried out using STA 6000 (Simultaneous Thermal Analyzer TG with DSC/DTA).
TGA measurements were carried out using STA 6000 (Simultaneous Thermal Analyzer TG with DSC/DTA).

For data set [2] the following is noted: crystals from 95% ethanol, Example 3.
Protocol: Mixture of dichloroacetic acid (V) (1.28 g, 1.2894 mmol) and tromethamine (DI) (1.2 g) are dissolved in 10 ml of 95% ethanol.
[3] abbreviates: 5 mM concentration, 14 days treatment, FIG. 8.

For `O=C([O-])C(Cl)Cl.[Na+]` [Formula (VI), sodium dichloroacetate, reference compound], in the data set with MCF7 cells (1 mM concentration, FIG. 7), the mortality was determined as 70%, the relative neovascularization reversal was 60% and the tumor reversal came out at 40%. The mortality in the data set on MCF7 cells (setting [3]) was determined as 90%. In the data set on MCF7 cells (5 mM concentration, FIG. 8), the neovascularization reversal came out at 70% and the relative tumor reversal stood at 50%.

For the compound “dichloroacetate tromethamine [Formula (VII)]”, in the data set on MCF7 cells (1 mM concentration, FIG. 7), the mortality entry is “No mortality”, the relative neovascularization reversal is ≤ 90% and the tumor reversal was ≤ 60%. The mortality result in the data set with MCF7 cells (setting [3]) is on record as “No mortality”. Also, in the data set on MCF7 cells (5 mM concentration, FIG. 8), the neovascularization reversal result is on record as “complete” and the relative tumor reversal result was “up to 90%”. Besides, in data set [1], the thermally stable upto was ≤ 150 °C. For the same compound, the water solubility result in data set [2] is “water soluble”.
